Legend:
[1] = system: rat; conditions: Subchronic oral toxicity in rodents, wistar, Feed, dose end: 90 day, group: systemic, systemic / in life observation / body weight / body weight + systemic / in life observation / food consumption / food consumption + systemic…
[2] = system: mouse; conditions: Prenatal developmental toxicity study, cd1, Oral, Gavage/Intubation, dose end: 14 GD
[3] = system: rat; conditions: Subchronic oral toxicity in rodents, other, Feed, dose end: 90 day, group: systemic
[4] = system: mouse; conditions: Subchronic oral toxicity in rodents, cd1, Feed, dose end: 90 day, group: systemic
[5] = system: dog; conditions: Subchronic oral toxicity in nonrodent, beagle, Feed, dose end: 13 week, group: systemic
[6] = system: rat; conditions: Subchronic oral toxicity in rodents, fischer, Feed, dose end: 13 week, group: systemic
[7] = system: rat; conditions: Multigenerational reproductive toxicity study, sprague dawley, Oral, Feed, dose end: 2 generation
[8] = system: rat; conditions: Prenatal developmental toxicity study, wistar, Oral, Gavage/Intubation, dose end: 15 GD
[9] = system: dog; conditions: Subchronic oral toxicity in nonrodent, beagle, Feed, dose end: 13 week, group: systemic; remark: listed apart in the source
[10] = system: dog; conditions: Chronic toxicity, beagle, Oral, Feed, dose end: 52 week, group: systemic
[11] = system: mouse; conditions: Subchronic oral toxicity in rodents, cd1, Feed, dose end: 13 week, group: systemic
[12] = system: rat; conditions: Subchronic oral toxicity in rodents, sprague dawley, Feed, dose end: 90 day, group: systemic
[13] = system: mouse; conditions: Carcinogenicity, cd1, Oral, Feed, dose end: 18 month, group: systemic
[14] = system: mouse; conditions: Carcinogenicity, cd1, Oral, Feed, dose end: 18 month, group: systemic; remark: listed apart in the source
[15] = system: rat; conditions: Prenatal developmental toxicity study, sprague dawley, Oral, Gavage/Intubation, dose end: 15 GD
[16] = system: rat; conditions: Multigenerational reproductive toxicity study, sprague dawley, Oral, Feed, dose end: 2 generation; remark: listed apart in the source
[17] = system: rat; conditions: Combined chronic toxicity/carcinogenicity, sprague dawley, Oral, Feed, dose end: 24 month, group: systemic
[18] = system: rat; conditions: Carcinogenicity; fischer; Oral; Water; dose end: 104 week; group: systemic; systemic / in life observation / water consumption / water consumption
[19] = system: mouse; conditions: Multigenerational reproductive toxicity study, other, Oral, Feed, dose end: 1 generation
[20] = system: dog; conditions: Chronic toxicity; beagle; Oral; Capsule; dose end: 12 month; group: cholinesterase; cholinesterase / cholinesterase / cholinesterase / plasma cholinesterase (che)
[21] = group: developmental, systemic / in life observation / body weight / offspring (pup) weight
[22] = group: maternal, systemic / in life observation / mortality / mortality
[23] = systemic / in life observation / food consumption / food consumption
[24] = systemic / in life observation / food consumption / food consumption + systemic / in life observation / body weight / body weight + systemic…
[25] = systemic / in life observation / body weight / body weight gain + systemic / organ weight / heart / relative to body weight + systemic / …
[26] = systemic / in life observation / body weight / body weight + systemic / in life observation / food consumption / food consumption + systemic…
[27] = systemic / clinical chemistry / albumin / albumin + systemic / clinical chemistry / triglycerides / triglycerides
[28] = systemic / clinical chemistry / alkaline phosphatase (alp/alk) / alkaline phosphatase (alp/alk) + systemic / clinical chemistry / bile acids…
[29] = group: offspring, developmental / developmental malformation / testes / delayed descent + developmental / developmental landmark / preputial separation / …
[30] = group: parental, systemic / in life observation / body weight / body weight + systemic / organ weight / adrenal gland / relative to body weight + systemic / …
[31] = group: reproductive, reproductive / reproductive performance / estrous cycle / periodicity + reproductive / reproductive performance / fertility / fertility
[32] = group: developmental, systemic / in life observation / body weight / fetal weight + developmental / developmental malformation / mouth / jaw / cleft palate
[33] = group: maternal, reproductive / reproductive performance / postimplantation loss / postimplantation loss + reproductive / reproductive performance / …
[34] = systemic / in life observation / clinical signs / defecation (diarrhea)
[35] = systemic / in life observation / clinical signs / defecation (diarrhea) + systemic / clinical chemistry / alpha-1 globulin / alpha-1 …
[36] = systemic / in life observation / body weight / body weight gain
[37] = systemic / in life observation / body weight / body weight gain + systemic / clinical chemistry / alkaline phosphatase (alp/alk) / alkaline …
[38] = systemic / clinical chemistry / 5' nucleotidase / 5' nucleotidase + systemic / clinical chemistry / alkaline phosphatase (alp/alk) / …
[39] = group: developmental, developmental / developmental malformation / kidney / dilated renal pelvis + developmental / developmental malformation / ureter / dilated
[40] = group: maternal, systemic / in life observation / body weight / body weight gain + systemic / in life observation / food consumption / food consumption
[41] = group: offspring, systemic / in life observation / body weight / offspring (pup) weight + systemic / in life observation / body weight / offspring (pup) …
[42] = group: parental, systemic / in life observation / clinical signs / anogenital staining
[43] = group: parental, systemic / in life observation / clinical signs / anogenital staining + systemic / in life observation / body weight / body weight + …
[44] = systemic / in life observation / body weight / body weight + systemic / in life observation / body weight / body weight gain + systemic / …
[45] = group: offspring, systemic / in life observation / body weight / litter weight + systemic / in life observation / body weight / offspring (pup) weight + …
[46] = group: reproductive, reproductive / reproductive performance / mating / mating + reproductive / reproductive performance / estrous cycle / length + reproductive…

SMILES: CCOCCOCCO [2-(2-Ethoxyethoxy)ethanol]
- LEL [1]: 2500 mg/kg/day
- LOAEL [1]: > 2500 mg/kg/day
- NEL [1]: 500 mg/kg/day
- NOAEL [1]: ≥ 2500 mg/kg/day
- LEL [2, 21]: 5500 mg/kg/day
- LOAEL [2, 21]: > 5500 mg/kg/day
- NEL [2, 21]: < 5500 mg/kg/day
- NOAEL [2, 21]: ≥ 5500 mg/kg/day
- LEL [2, 22]: 5500 mg/kg/day
- LOAEL [2, 22]: > 5500 mg/kg/day
- NEL [2, 22]: < 5500 mg/kg/day
- NOAEL [2, 22]: ≥ 5500 mg/kg/day
- LEL [3, 23]: 250 mg/kg/day
- NEL [3, 23]: < 250 mg/kg/day
- LOAEL [3, 24]: > 2500 mg/kg/day
- NOAEL [3, 24]: ≥ 2500 mg/kg/day
- LOAEL [4, 25]: > 8100 mg/kg/day
- NEL [4, 25]: 900 mg/kg/day
- NOAEL [4, 25]: ≥ 8100 mg/kg/day
- LEL ([4]; systemic / in life observation / body weight / body weight gain + systemic / organ weight / kidney / relative to body weight): 2700 mg/kg/day

SMILES: Cn1sccc1=O [2-Methyl-3(2H)-isothiazolone]
- LOAEL ([5]; systemic / in life observation / body weight / body weight + systemic / in life observation / food consumption / food consumption): 40.6 mg/kg/day
- LEL [5, 26]: 40.6 mg/kg/day
- NEL [5, 26]: 9.9 mg/kg/day
- NOAEL [5, 26]: 9.9 mg/kg/day

SMILES: CCCCOC(=O)c1ccccc1C(=O)OCCCC [Dibutyl phthalate]
- LEL [6, 27]: 125 mg/kg/day
- NEL [6, 27]: < 125 mg/kg/day
- LOAEL [6, 28]: > 2000 mg/kg/day
- NOAEL [6, 28]: ≥ 2000 mg/kg/day
- LEL [7, 29]: 531 mg/kg/day
- LOAEL [7, 29]: > 531 mg/kg/day
- NEL [7, 29]: 51.8 mg/kg/day
- NOAEL [7, 29]: ≥ 531 mg/kg/day
- LOAEL [7, 30]: > 531 mg/kg/day
- NEL [7, 30]: 1.61 mg/kg/day
- NOAEL [7, 30]: ≥ 531 mg/kg/day
- LEL ([7]; group: parental, systemic / organ weight / adrenal gland / relative to body weight): 5.35 mg/kg/day
- LEL ([7]; group: reproductive, reproductive / reproductive performance / estrous cycle / periodicity): 95.3 mg/kg/day
- LOAEL [7, 31]: > 1020 mg/kg/day
- NEL [7, 31]: 9.24 mg/kg/day
- NOAEL [7, 31]: ≥ 1020 mg/kg/day
- LOAEL ([8]; group: developmental, systemic / in life observation / body weight / fetal weight): 630 mg/kg/day
- LEL [8, 32]: 630 mg/kg/day
- NEL [8, 32]: 500 mg/kg/day
- NOAEL [8, 32]: 500 mg/kg/day
- LEL [8, 33]: 630 mg/kg/day
- LOAEL [8, 33]: 630 mg/kg/day
- NEL [8, 33]: 500 mg/kg/day
- NOAEL [8, 33]: 500 mg/kg/day

SMILES: N#Cc1c[nH]cc1-c1cccc2c1OC(F)(F)O2 [Fludioxonil]
- LEL [9, 34]: 50 mg/kg/day
- LOAEL [9, 34]: 50 mg/kg/day
- NEL [9, 35]: 5 mg/kg/day
- NOAEL [9, 35]: 5 mg/kg/day
- LEL [10, 36]: 35.5 mg/kg/day
- LOAEL [10, 36]: 35.5 mg/kg/day
- NEL [10, 37]: 3.3 mg/kg/day
- NOAEL [10, 37]: 3.3 mg/kg/day
- LOAEL [11, 38]: 1050 mg/kg/day
- NOAEL [11, 38]: 445 mg/kg/day
- LEL ([11]; systemic / organ weight / liver / relative to body weight + systemic / pathology microscopic / liver / hypertrophy): 559 mg/kg/day
- NEL ([11]; systemic / organ weight / liver / relative to body weight + systemic / pathology microscopic / liver / hypertrophy + systemic / clinical …): 178 mg/kg/day
- LOAEL ([12]; systemic / in life observation / body weight / body weight gain + systemic / pathology microscopic / kidney / nephropathy): 428 mg/kg/day
- NOAEL ([12]; systemic / in life observation / body weight / body weight gain + systemic / pathology microscopic / kidney / nephropathy + systemic / …): 64 mg/kg/day
- LEL ([12]; systemic / organ weight / thymus / relative to body weight): 70 mg/kg/day
- NEL ([12]; systemic / organ weight / thymus / relative to body weight + systemic / clinical chemistry / alkaline phosphatase (alp/alk) / alkaline …): 7.1 mg/kg/day
- NEL ([13]; systemic / organ weight / heart / absolute + systemic / organ weight / kidney / absolute + systemic / organ weight / liver / relative to …): 3.3 mg/kg/day
- LOAEL ([13]; systemic / pathology microscopic / kidney / nephropathy): 590 mg/kg/day
- NOAEL ([13]; systemic / pathology microscopic / kidney / nephropathy + systemic / hematology / hematocrit (hct) / hematocrit (hct) + systemic / …): 3.3 mg/kg/day
- LEL ([13]; systemic / pathology microscopic / kidney / nephropathy + systemic / hematology / hemoglobin (hgb) / hemoglobin (hgb) + systemic / …): 590 mg/kg/day
- LEL [14, 36]: 1.1 mg/kg/day
- NEL [14, 36]: < 1.1 mg/kg/day
- NOAEL ([14]; systemic / in life observation / body weight / body weight gain + systemic / in life observation / clinical signs / convulsions + systemic…): 11.3 mg/kg/day
- LOAEL ([14]; systemic / in life observation / clinical signs / convulsions + systemic / in life observation / clinical signs / urine, discoloration + …): 112 mg/kg/day
- LOAEL [15, 39]: 1000 mg/kg/day
- NEL [15, 39]: 10 mg/kg/day
- NOAEL [15, 39]: 100 mg/kg/day
- LEL ([15]; group: developmental, developmental / developmental malformation / ureter / dilated): 100 mg/kg/day
- LOAEL ([15]; group: maternal, systemic / in life observation / body weight / body weight gain): 1000 mg/kg/day
- LEL [15, 40]: 1000 mg/kg/day
- NEL [15, 40]: 100 mg/kg/day
- NOAEL [15, 40]: 100 mg/kg/day
- LOAEL ([16]; group: offspring, systemic / in life observation / body weight / offspring (pup) weight): 222 mg/kg/day
- LEL [16, 41]: 222 mg/kg/day
- NEL [16, 41]: 22.1 mg/kg/day
- NOAEL [16, 41]: 22.1 mg/kg/day
- NEL [16, 42]: 22.1 mg/kg/day
- NOAEL [16, 42]: 22.1 mg/kg/day
- LEL [16, 43]: 222 mg/kg/day
- LOAEL [16, 43]: 222 mg/kg/day
- LOAEL [17, 44]: 113 mg/kg/day
- NEL [17, 44]: 3.7 mg/kg/day
- NOAEL [17, 44]: 37 mg/kg/day
- LEL ([17]; systemic / in life observation / clinical signs / body surface staining + systemic / in life observation / clinical signs / feces, …): 37 mg/kg/day

SMILES: O=C(OC[C@H]1O[C@@H](OC(=O)c2cc(O)c(O)c(OC(=O)c3cc(O)c(O)c(O)c3)c2)[C@H](OC(=O)c2cc(O)c(O)c(OC(=O)c3cc(O)c(O)c(O)c3)c2)[C@@H](OC(=O)c2cc(O)c(O)c(OC(=O)c3cc(O)c(O)c(O)c3)c2)[C@@H]1OC(=O)c1cc(O)c(O)c(OC(=O)c2cc(O)c(O)c(O)c2)c1)c1cc(O)c(O)c(OC(=O)c2cc(O)c(O)c(O)c2)c1 [Tannic acid]
- LEL [18]: 131 mg/kg/day
- LOAEL [18]: > 243 mg/kg/day
- NEL [18]: < 131 mg/kg/day
- NOAEL [18]: ≥ 243 mg/kg/day
- LEL [19, 45]: 12000 mg/kg/day
- LOAEL [19, 45]: > 12000 mg/kg/day
- NEL [19, 45]: < 12000 mg/kg/day
- NOAEL [19, 45]: ≥ 12000 mg/kg/day
- LEL [19, 46]: 12000 mg/kg/day
- LOAEL [19, 46]: > 12000 mg/kg/day
- NEL [19, 46]: < 12000 mg/kg/day
- NOAEL [19, 46]: ≥ 12000 mg/kg/day

SMILES: CCOP(=S)(OCC)SCSC(C)(C)C [Terbufos]
- LEL [20]: 0.015 mg/kg/day
- LOAEL [20]: 0.015 mg/kg/day
- NEL [20]: < 0.015 mg/kg/day
- NOAEL [20]: < 0.015 mg/kg/day

Source: EPA's ToxRefDB 2
